Data as given in patent EP3260120B1, “PHARMACOLOGICAL ADJUVANTS FOR THERMAL ABLATION OF CANCER” (Blasi, Paolo, priority 2016, dated 2017).

System: human colon adenocarcinoma HT-29 cell line
Assay: thermosensitizing or killing effect on HT-29 cells (cell count, ethidium bromide / fluorescein diacetate viability)
Assay type: cell-based
Settings: for Viability (%) / Total cells (x10^6) / Living cells (x10^6): mean ± S.D.; for Living cells (x10^6): viability % applied to total cells
Description: The thermosensitizing or killing effect of omeprazole in acidic solution and that of liposome formulations was tested on human colon adenocarcinoma HT-29 cell line (Istituto Zooprofilattico Ubertini, Brescia, Italy). The cells were incubated under standard conditions: 5% CO2, 37°C, in McCOY'S 5A medium (Sigma-Aldrich, Milan, Italy) at pH 7.4 with sodium bicarbonate, antibiotics and antifungals (penicillin 100 U/mL, streptomycin 100 U/mL, amphotericin B 0.25 µg/mL) and 10% foetal bovine serum. A trypsin solution with EDTA was employed to detach the cells from the culture plates. The experimental protocol is reported in the following scheme: [formula] In detail: • 1)-HT-29 cells were seeded in 6-well culture plates (Falcon) with a 10 cm^2 area at a 250,000 cell/well concentration and 5 mL medium as indicated above. • 2)-After 72 h plating, the culture medium, with initial buffered pH=7.4, was replaced with unbuffered medium (without sodium bicarbonate), and 12 wells were maintained at 37°C, while 12 wells were destined for thermal treatment. In each group, three wells were treated with omeprazole in acidic solution, three with LUVs with acidic core and three with LUVs loaded with omeprazole in acidic solution, according to the concentrations reported in the previous scheme. […] At the end of the thermal treatment the cells were brought back into the incubator at 37°C. • 4)-After 24 h, the following parameters were evaluated for all the wells: Total number of cells (living and dead). After detachment of the cell monolayer with trypsin and EDTA, the total number of cells (living + dead) in each well was determined using a Countess cell counting machine (Invitrogen, Milan, Italy). Cell viability (%). Cell viability was evaluated by incubation of a detached cell suspension with ethidium bromide and fluorescein diacetate (Sigma-Aldrich, Milan, Italy). The cells were analysed with a fluorescent optical microscope (Olympus BX-41, Tokyo, Japan) using the filter for fluorescein. The images were recorded with an F-view digital camera (Olympus) and processed with F-view software (Olympus). With this method, the living cells are stained green and the dead cells red, as fluorescein diacetate is internalized by living cells and hydrolysed by cytoplasm esterases into the corresponding fluorochrome, fluorescein, which emits an intense green fluorescence, whereas ethidium bromide only penetrates cells with altered membranes, binding to nucleic acids and producing a red fluorescence. The living and dead cells were counted by a semi-manual method. A minimum of three images per well were acquired in distinct areas, representative of the corresponding cell suspension. For the group maintained at 37°C, an average of 2,500 cells was counted for each treatment type (constituted by three wells representing the single treatment performed in triplicate). Since the number of cells decreases noticeably for the wells treated at 45°C for 2 h, the number of recorded images was increased (from 9 to 16), and 2,700 to 3,500 cells were counted for each treatment type (constituted by three wells representing the single treatment performed in triplicate). Living cell (green) and dead cell (red) counts were acquired by marking each cell and recording the resulting cell number with Image J software. The percentage viability of the cells counted for each sample was calculated as follows: Viability(%) = (No. of living cells)/(No. of living cells + No. of dead cells)⋅100 [formula] Total number of living cells. The endpoint of the study was the total number of tumour cells surviving the different treatments. This value was calculated for each well by applying the viability percentage obtained by semi-manual counting to the total number of cells measured by the cell-counting machine. Statistical analysis. The data were subjected to statistical analysis with the paired Student's t-test and one-way ANOVA (SigmaPlot 12.0, Systat Software Inc.) with a 95% significance level. […]

[1] = 37°C, 48 h incubation with treatment
[2] = 45°C for 2h after 24 h pre-incubation, evaluated 24 h after thermal treatment

COc1ccc2[nH]c([S+]([O-])Cc3ncc(C)c(OC)c3C)nc2c1 (centres unmarked) [B, omeprazole]
Viability (%) [1]: 83.3 ± 2.4%
decrease in number of surviving tumour cells versus untreated control (37°C, 48 h of incubation): 25%
Total cells (x10^6) (37°C, living and dead cells per well, 48 h incubation with treatment): 1.83 ± 0.25 x10^6
Living cells (x10^6) [1]: 1.53 ± 0.22 x10^6
reduction in number of living cells compared to heating only (45°C for 2 h, 24 h after heat shock): 41%
Total cells (x10^6) [2]: 0.66 ± 0.27 x10^6
Viability (%) [2]: 61.5 ± 4.4%
Living cells (x10^6) [2]: 0.40 ± 0.10 x10^6
